# Where two headings read alike, the source gives them in different places.
# What was measured:
# [1] = test system: MHC Class I expression in A2780 human ovarian cancer cells; test: MHC Class I expression in A2780 cells after alpelisib, TTFields or both; type: cell-based; conditions: TTFields (1.75V/cm and 200 kHz) plus 250 nM alpelisib for 72 h, then 72 h without drug under TTFields, vs untreated control and single treatments
# Protocol: A2780 human ovarian cancer cells (20,000 cells/well) were incubated for 144 h with the following conditions: Control untreated; 250 nM alpelisib (PI3K inhibitor) for 72 h—media containing the drug was removed, and fresh media without alpelisib was added for an additional 72 h incubation; TTFields (1.75V/cm and 200 kHz); TTFields plus 250 nM alpelisib for 72 h—media containing the drug was removed, and fresh media without alpelisib was added for an additional 72 h incubation under TTFields condition.
# [2] = test system: MHC Class I expression in Panc02-luc mouse pancreatic cells; conditions: TTFields (1.75V/cm and 150 kHz) plus 10 μM chloroquine, 72 h, vs untreated control
# Protocol: Panc02-luc mouse pancreatic cells (10,000 cells/well) were incubated for 72 h with the following conditions: Control untreated, 10 μM chloroquine (autophagy inhibitor), TTFields (1.75V/cm and 150 kHz), and TTFields plus 10 μM chloroquine.
# In FIG. 3, MHC Class I expression was evaluated in Panc02-luc mouse pancreatic cells (an orthotopic model of pancreatic cancer) following chloroquine (an autophagy inhibitor) treatment alone, TTFields application alone, and the combination of TTFields application with concomitant chloroquine treatment.
SMILES,MHC Class I expression [1],MHC Class I expression ([1]; listed as Alpelisib),MHC Class I expression [2],MHC Class I expression ([2]; listed as Chloroquine)
Cc1nc(NC(=O)N2CCC[C@H]2C(N)=O)sc1-c1ccnc(C(C)(C)C(F)(F)F)c1 [alpelisib],greater than in the untreated control group as well as in the single treatment groups,increased with concomitant Alpelisib treatment,,
CCN(CC)CCCC(C)Nc1ccnc2cc(Cl)ccc12 (stereo not shown) [chloroquine],,,increased significantly above the untreated cells,increased with concomitant Chloroquine treatment
